Measurements taken from US7776558B2, “Human G protein-coupled receptor and modulators thereof for the treatment of cell death-related disorders” (Arena Pharmaceuticals, Inc., priority 2003, dated 2010).
“Also recorded” adds a separate entry of the source. Where no end group is shown, it is not given here.

Legend:
[1] = test system: serum-deprived differentiated SH-SY5Y cells; assay: Cell death of serum-deprived differentiated SH-SY5Y cells; format: cell-based, human; details: serum-free medium 6 days; LDH assay (panel A) or Trypan Blue staining (panel B); FIG. 10
Procedure: Briefly, SH-SY5Y cells were differentiated into neuronal-like cells by treatment with retinoic acid (10 μM) for five days followed by treatment with BDNF (10 ng/ml) for two days. […] Cell viability was determined by lactate dehydrogenase (LDH) assay (Roche, Indianapolis, Ind.; catalog no. 1644793) or by trypan blue staining. LDH is a stable cytoplasmic enzyme present in all cells which is rapidly released upon damage to the plasma membrane. The level of LDH is inversely proportional to the number of viable cells. The LDH assay was carried out as per manufacturer's instructions.

neuronal cells = details: cited from earlier work
FPRL1 = biological target: T1, FPRL1 (Homo sapiens, UniProt P25090); assay: Whole cell adenylate cyclase (cAMP) assay, stably transfected HEK293 cells; format: cell-based; details: in the presence of 5 μM forskolin, FIG. 6
T1 sequence (P25090 1-351): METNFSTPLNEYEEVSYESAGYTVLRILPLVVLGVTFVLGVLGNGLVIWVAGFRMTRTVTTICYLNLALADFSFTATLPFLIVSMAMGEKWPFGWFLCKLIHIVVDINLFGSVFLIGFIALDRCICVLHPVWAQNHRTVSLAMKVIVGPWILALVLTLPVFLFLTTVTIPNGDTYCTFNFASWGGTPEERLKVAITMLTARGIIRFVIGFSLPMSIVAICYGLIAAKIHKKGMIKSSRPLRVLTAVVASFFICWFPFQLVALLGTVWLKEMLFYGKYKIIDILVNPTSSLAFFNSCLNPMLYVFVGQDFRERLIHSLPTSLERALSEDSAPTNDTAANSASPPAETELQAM
Source text: A Flash Plate™ Adenylyl Cyclase kit (New England Nuclear; Cat. No. SMP004A) designed for cell-based assays can be modified for use with crude plasma membranes. The Flash Plate wells can contain a scintillant coating which also contains a specific antibody recognizing cAMP. The cAMP generated in the wells can be quantitated by a direct competition for binding of radioactive cAMP tracer to the cAMP antibody. The following serves as a brief protocol for the measurement of changes in cAMP levels in whole cells that express the receptors.
Transfected cells are harvested approximately twenty four hours after transient transfection. Media is carefully aspirated off and discarded. 10 ml of PBS is gently added to each dish of cells followed by careful aspiration. 1 ml of Sigma cell dissociation buffer and 3 ml of PBS are added to each plate. Cells are pipetted off the plate and the cell suspension is collected into a 50 ml conical centrifuge tube. Cells are then centrifuged at room temperature at 1,100 rpm for 5 min. The cell pellet is carefully re-suspended into an appropriate volume of PBS (about 3 ml/plate). The cells are then counted using a hemocytometer and additional PBS is added to give the appropriate number of cells (with a final volume of about 50 μl/well). […]
In FIG. 6, agonist activity was determined through adenylate cyclase activity. […] Samples were then assessed for the level of intracellular cAMP as described in Example 4, supra.

Compound	Inhibition of cell death of serum-deprived SH-SY5Y cells [1]	Protection of neuronal cells from toxic insults (neuronal cells; Alzheimer's disease-relevant toxicity, three mutant FAD genes and Aβ)	Rescue of cortical neurons from prion-peptide-induced apoptosis (neuronal cells; Sponne et al. 2004)	Protective activity for neurons against serum deprivation (neuronal cells; Takahashi et al. 2002)	Agonist activity at FPRL1, intracellular cAMP (FPRL1)	Agonist activity at FPRL1, intracellular cAMP (FPRL1; listed as Human)	Activity relative to Humanin (neuronal cells; Niikura et al. 2002)
CC(C)c1ccc2c(c1)CCC1C(C)(C(N)=O)CCCC21C (stereo not drawn) [Compound 1, 7-Isopropyl-1,4a-dimethyl-1,2,3,4,4a,9,10,10a-octahydro-phenanthrene-1-carboxylic acid amide]	inhibit cell death						
CC[C@H](C)[C@H](NC(=O)[C@H](CCC(=O)O)NC(=O)[C@H](CO)NC(=O)[C@@H](NC(=O)[C@H](CC(C)C)NC(=O)[C@H](CC(C)C)NC(=O)[C@H](CC(C)C)NC(=O)[C@H](CC(C)C)NC(=O)[C@H](CS)NC(=O)[C@H](CO)NC(=O)[C@H](Cc1ccccc1)NC(=O)CNC(=O)[C@H](CCCNC(=N)N)NC(=O)[C@@H]1CCCN1C(=O)[C@H](C)NC(=O)[C@@H](N)CCSC)[C@@H](C)O)C(=O)N[C@@H](CC(=O)O)C(=O)N[C@@H](CC(C)C)C(=O)N1CCC[C@H]1C(=O)N[C@H](C(=O)N[C@@H](CCCCN)C(=O)N[C@@H](CCCNC(=N)N)C(=O)N[C@@H](CCCNC(=N)N)C(=O)N[C@@H](C)C(=O)O)C(C)C [Humanin]	inhibit cell death	protect neuronal cells from Alzheimer's disease-relevant toxicity; also recorded: protect neuronal cells from a number of toxic insults	rescue cortical neurons from prion-peptide-induced apoptosis	protective activity for neurons against serum deprivation	agonists of both FPRL1 and FPRL2	agonists of both FPRL2 and FPRL1	
MAPRGFSCLLLLTGEIDLPVKRRA [[Gly14]-Humanin]					agonists of both FPRL1 and FPRL2; also recorded: agonists of both FPRL2 and FPRL1		significantly more active than Humanin
